These results are taken from paper PMC10527105, “Chirality Matters: Fine-Tuning of Novel Monoamine Reuptake Inhibitors Selectivity through Manipulation of Stereochemistry” (Biomolecules, 2023).

“And” between values parts separate entries of the source, which are not always exact repeats. Equal entries are not always repeated. Where two headings read alike, the source gives them in different places. Where only a bound is given, the exact number is not on record here.

One data set deals with rat cortical neurons. The data set is described as follows: Neurite outgrowth assay (Cyprotex). The class given is cell-based. Conditions: for IC50: 72 h. As for the experimental part:
Neurite outgrowth assay. […] were carried out by Cyprotex (an Evotec Company, Toulouse, France), Study No. CYP2052-R1. For an in-depth description, please refer to the report in the supporting information files. Cryo-preserved rat cortical neurons (QBM Cell Science, R-Cx-500) were quickly thawed and slowly diluted with neurobasal medium supplemented with L-glutamine (Invitrogen, Cat. No. 25030-081), penicillin-streptomycin (Invitrogen, Cat. No. 15140-122), and B27 (NB/B27 medium, Invitrogen, Cat. No. 17504-044). After a gentle centrifugation step, the neurons were resuspended in NB/B27 medium at a density of 4.0 × 10^6 cells/mL. One hour prior to treatment, the neurons were plated in 384-well plates (Corning 354663) pre-coated with a laminin solution (Sigma L2020 1 mg/mL) at a density of 10,000 cells per well. After treatment with test articles and control compounds, the neurons were maintained in a humidified environment at 37 °C with 5% CO2 for 72 h. At the end of the treatment period, the neurons were fixed for 1 h with a 3.7% formaldehyde solution (Acros Organics, 41073-0010). The neurons were washed with phosphate buffered saline (PBS) (SH30264.02) and permeabilized for 10 min with a 0.5% solution of Triton X-100 (Millipore Sigma, X100). After another wash step, the neurons were stained for one hour with Hoechst 33342 (ThermoFisher Scientific, H3570) and the anti-beta III tubulin antibody, Alexa Fluor® 488 conjugate (Millipore Sigma AB15708A4), diluted in a blocking buffer solution (Thermo Scientific, 37525). Upon completion of the staining step, the neurons were washed again, and the plates were sealed in preparation for the imaging process. The neurons were evaluated for neurite outgrowth and cell health using the high-content imaging platform, ArrayScan VTi (Thermo Scientific ArrayScan VTi), with an optimized neuronal profiling bio-application.
This assay assessed cell health and neurite outgrowth utilizing a neuronal profiling bio-application applied to images obtained on an ArrayScan VTi. Valid neuron count, mean neurite average length, and neurite total length per neuron were determined and reported. Raw data were normalized to the vehicle control and reported as a normalized% response. Dose response graphs were generated with GraphPad Prism using a sigmoidal dose-response (variable slope) algorithm.

Data set [1] concerns the target T1, human dopamine transporter/SLC6A3 (DAT) (Homo sapiens, UniProt Q01959).
T1 construct: expressed in transfected cells; host or cells: HEK293
The data set is described as follows: Cellular uptake experiments: [3H]-dopamine reuptake inhibition in transporter-expressing HEK293 cells. The data set is classed as cell-based. Conditions: cells stably expressing DAT, [3H]-dopamine 1 µM, screening cut-off 50 µM. The essentials: (§1)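 Stably transfected HEK293 cells preincubated 5 min with compound, then 1 µM [3H]-substrate for 2.5 min (SERT: 5 min) at 25 °C, pH 7.1 buffer; uptake counted by scintillation. Nonspecific uptake defined with 10 µM mazindol (DAT, NET) or 10 µM clomipramine (SERT).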

In data set [2] the target is T2, human serotonin transporter/SLC6A4 (SERT) (Homo sapiens, UniProt P31645).
T2 construct: expressed in transfected cells; host or cells: HEK293
T2 sequence (P31645 whole entry): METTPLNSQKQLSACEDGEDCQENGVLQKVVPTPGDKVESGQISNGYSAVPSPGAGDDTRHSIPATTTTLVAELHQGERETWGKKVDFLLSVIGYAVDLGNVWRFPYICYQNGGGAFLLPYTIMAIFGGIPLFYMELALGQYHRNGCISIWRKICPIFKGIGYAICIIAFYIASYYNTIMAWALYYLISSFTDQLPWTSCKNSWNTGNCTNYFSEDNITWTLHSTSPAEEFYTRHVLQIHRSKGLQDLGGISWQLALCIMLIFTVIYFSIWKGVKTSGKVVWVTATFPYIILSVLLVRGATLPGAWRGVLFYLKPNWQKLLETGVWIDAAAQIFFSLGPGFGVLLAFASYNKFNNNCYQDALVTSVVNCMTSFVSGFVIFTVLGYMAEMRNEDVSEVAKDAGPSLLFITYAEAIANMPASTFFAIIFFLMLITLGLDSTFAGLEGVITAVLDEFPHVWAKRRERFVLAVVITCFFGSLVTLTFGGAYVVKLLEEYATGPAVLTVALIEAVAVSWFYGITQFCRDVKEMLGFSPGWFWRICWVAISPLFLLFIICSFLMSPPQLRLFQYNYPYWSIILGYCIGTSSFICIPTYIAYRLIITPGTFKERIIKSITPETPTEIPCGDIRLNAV
Kind of data set: Cellular uptake experiments: [3H]-serotonin reuptake inhibition in transporter-expressing HEK293 cells. The class given is cell-based. The essentials: as §1

Data set [3] deals with T3, noradrenaline transporter/SLC6A2 (NET) (Homo sapiens, UniProt P23975).
T3 construct: expressed in transfected cells; host or cells: HEK293
T3 sequence (P23975 whole entry): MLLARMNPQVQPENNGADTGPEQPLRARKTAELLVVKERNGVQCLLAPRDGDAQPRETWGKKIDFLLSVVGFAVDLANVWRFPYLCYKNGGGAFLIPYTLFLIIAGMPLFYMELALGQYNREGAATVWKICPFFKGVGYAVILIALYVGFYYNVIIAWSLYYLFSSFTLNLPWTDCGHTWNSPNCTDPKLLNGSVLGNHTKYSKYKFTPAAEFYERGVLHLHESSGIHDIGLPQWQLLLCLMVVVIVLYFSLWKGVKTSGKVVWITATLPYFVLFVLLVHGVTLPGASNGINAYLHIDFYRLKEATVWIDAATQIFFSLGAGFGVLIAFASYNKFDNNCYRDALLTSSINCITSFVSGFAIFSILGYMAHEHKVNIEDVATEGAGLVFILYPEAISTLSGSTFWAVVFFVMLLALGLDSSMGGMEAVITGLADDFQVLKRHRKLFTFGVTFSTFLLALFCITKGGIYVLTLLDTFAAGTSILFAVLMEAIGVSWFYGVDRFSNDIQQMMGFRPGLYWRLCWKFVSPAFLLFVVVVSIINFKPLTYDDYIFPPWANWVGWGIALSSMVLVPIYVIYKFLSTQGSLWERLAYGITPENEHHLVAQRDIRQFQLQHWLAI
Kind of data set: Cellular uptake experiments: [3H]-noradrenaline reuptake inhibition in transporter-expressing HEK293 cells. The class given is cell-based. The method, boiled down: as §1

Data set [4] addresses T3, noradrenaline transporter/SLC6A2 (NET). Particulars: cells stably expressing NET; ref [35]; read-out: Reuptake Inhibition (IC50 ± SE, µM) NET; cited from earlier work.
Where [5] appears, read: read-out: Reuptake Inhibition (IC50 ± SE, µM) DAT.
Where [6] appears, read: cells stably expressing SERT; [3H]-serotonin 1 µM; screening cut-off 50 µM; read-out: Reuptake Inhibition (IC50 ± SE, µM) SERT.
Where [7] appears, read: cells stably expressing NET; [3H]-noradrenaline 1 µM; screening cut-off 50 µM; read-out: Reuptake Inhibition (IC50 ± SE, µM) NET.
Setting [8] is: Reuptake Inhibition (IC50 ± SE, µM) DAT.
The mark [9] stands for this setting: Reuptake Inhibition (IC50 ± SE, µM) SERT, cells stably expressing SERT; [3H]-serotonin 1 µM; screening cut-off 50 µM.
Where [10] appears, read: Reuptake Inhibition (IC50 ± SE, µM) NET, cells stably expressing NET; [3H]-noradrenaline 1 µM; screening cut-off 50 µM.
Setting [11] is: read-out: Reuptake Inhibition (IC50 ± SE, µM) SERT; cells stably expressing SERT; [3H]-serotonin 1 µM; screening cut-off 50 µM.
[12] abbreviates: read-out: Reuptake Inhibition (IC50 ± SE, µM) NET; cells stably expressing NET; [3H]-noradrenaline 1 µM; screening cut-off 50 µM.

T1 sequence (Q01959 whole entry): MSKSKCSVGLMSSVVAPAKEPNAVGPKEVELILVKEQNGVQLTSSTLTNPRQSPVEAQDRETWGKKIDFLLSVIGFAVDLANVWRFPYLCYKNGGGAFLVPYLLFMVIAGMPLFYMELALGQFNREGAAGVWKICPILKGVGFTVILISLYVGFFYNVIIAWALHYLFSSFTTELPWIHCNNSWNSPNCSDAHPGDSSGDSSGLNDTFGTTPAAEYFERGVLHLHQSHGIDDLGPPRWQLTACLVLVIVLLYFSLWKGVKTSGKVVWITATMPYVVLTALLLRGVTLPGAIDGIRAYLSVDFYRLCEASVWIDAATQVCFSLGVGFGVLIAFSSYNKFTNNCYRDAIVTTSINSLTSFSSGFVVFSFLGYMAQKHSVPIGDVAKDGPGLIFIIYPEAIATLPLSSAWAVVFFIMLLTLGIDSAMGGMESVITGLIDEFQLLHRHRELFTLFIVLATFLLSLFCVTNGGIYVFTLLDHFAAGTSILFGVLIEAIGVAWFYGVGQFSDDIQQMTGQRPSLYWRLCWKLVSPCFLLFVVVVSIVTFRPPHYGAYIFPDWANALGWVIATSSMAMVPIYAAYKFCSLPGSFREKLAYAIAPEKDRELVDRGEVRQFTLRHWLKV

For `CN(C)CCCN1c2ccccc2Sc2ccc(Cl)cc21` [Chlorpromazine, reference compound], the IC50 worked out at 9.02 µM with rat cortical neurons (Rattus norvegicus, Cortical neurone, read-out: Mean Neurite Avg. Length IC50, rat cortical neurons, 72 h); 13.8 µM with rat cortical neurons (Rattus norvegicus, Cortical neurone, read-out: Neurite Total Length per Neuron IC50, rat cortical neurons, 72 h); 7.99 µM in the data set with rat cortical neurons (Rattus norvegicus, Cortical neurone, read-out: Valid Neuron Count IC50, rat cortical neurons, 72 h); 9.02 µM in the data set with rat cortical neurons (read-out: Mean Neurite Avg. Length IC50, rat cortical neurons). Also, the “effect on neurite outgrowth in relation to effect on cell viability” value with rat cortical neurons (rat cortical neurons) is listed as “not independent of its effect on cell viability”.

Turning to `[O-][S@@+](Cc1cccs1)[C@H](c1ccccc1)c1ccccc1F` [Compound 8a, (S,R)-2-((((2-fluorophenyl)(phenyl)methyl)sulfinyl)methyl)thiophene], the IC50 is 1.09 ± 0.07 µM in data set [1] (setting [5]), over 50 µM in data set [2] (setting [6]) and over 50 µM in data set [3] (setting [7]).

As to `[O-][S+](Cc1cccs1)C(c1ccccc1)c1cccc(F)c1` (stereo not shown) [Compound 8b, 2-((((3-fluorophenyl)(phenyl)methyl)sulfinyl)methyl)thiophene], the IC50 in data set [1] (setting [5]) is 9 ± 3 µM; in data set [2] (setting [6]) it was over 50 µM; in data set [3] (setting [7]) it was over 50 µM.

As to `[O-][S+](Cc1cccs1)C(c1ccccc1)c1ccc(F)cc1` (stereo not shown) [Compound 8c, 2-((((4-fluorophenyl)(phenyl)methyl)sulfinyl)methyl)thiophene], the IC50 in data set [1] (setting [5]) is 5.2 ± 0.1 µM; in data set [2] (setting [6]), 24 ± 6 µM; in data set [3] (setting [7]), over 50 µM.

On to `[O-][S@@+](Cc1cccs1)[C@H](c1ccccc1)c1ccccc1Cl` [Compound 8d, (S,R)-2-((((2-chlorophenyl)(phenyl)methyl)sulfinyl)methyl)thiophene], for which the IC50 in data set [1] (setting [5]) was 2.55 ± 0.04 µM; in data set [2] (setting [6]), over 50 µM; in data set [3] (setting [7]), over 50 µM.

With `[O-][S@+](Cc1cccs1)[C@H](c1ccccc1)c1cccc(Cl)c1` [Compound 8e, (R,R)-2-((((3-chlorophenyl)(phenyl)methyl)sulfinyl)methyl)thiophene], the IC50 in data set [1] (setting [8]) came to 0.83 ± 0.16 µM; in data set [2] (setting [9]), 19 ± 1 µM; in data set [3] (setting [10]) it was 48 ± 6 µM.

`[O-][S@+](Cc1cccs1)[C@H](c1ccccc1)c1ccc(Cl)cc1` [Compound 8f, (R,R)-2-((((4-chlorophenyl)(phenyl)methyl)sulfinyl)methyl)thiophene]: the IC50 is 4.9 ± 0.6 µM in data set [1] (setting [8]), over 50 µM in data set [2] (setting [9]) and over 50 µM in data set [3] (setting [10]).

For the compound `[O-][S+](Cc1cccs1)C(c1ccccc1)c1ccccc1Br` (stereo not shown) [Compound 8g, 2-((((2-bromophenyl)(phenyl)methyl)sulfinyl)methyl)thiophene], the values for the IC50 in data set [1] (setting [8]), in data set [2] (setting [11]) and in data set [3] (setting [12]) were 5.06 ± 0.31 µM, over 50 µM and over 50 µM, respectively.

For `[O-][S+](Cc1cccs1)C(c1ccccc1)c1ccccc1I` (stereo not shown) [Compound 8i, 2-((((2-iodophenyl)(phenyl)methyl)sulfinyl)methyl)thiophene], the results for the concentration for half-maximal inhibition (IC50) in data set [1] (setting [8]), in data set [2] (setting [11]) and in data set [3] (setting [12]) were 9.6 ± 1.2 µM, over 50 µM and over 50 µM, respectively.

Turning to `[O-][S+](Cc1cccs1)C(c1ccccc1)c1cccc(I)c1` (stereo not shown) [Compound 8j, 2-((((3-iodophenyl)(phenyl)methyl)sulfinyl)methyl)thiophene], the IC50 in data set [1] (setting [8]) is 1.5 ± 0.17 µM; in data set [2] (setting [11]), over 50 µM; in data set [3] (setting [12]) it was over 50 µM.

On to `[O-][S@+](Cc1cccs1)[C@H](c1ccccc1)c1ccc(I)cc1` [Compound 8k, (R,R)-2-((((4-iodophenyl)(phenyl)methyl)sulfinyl)methyl)thiophene], for which the half-inhibitory concentration (IC50) in data set [1] (setting [8]) was 2.6 ± 0.1 µM; in data set [2] (setting [9]), over 50 µM; in data set [3] (setting [10]), over 50 µM.

As for `Cc1ccccc1C(c1ccccc1)[S+]([O-])Cc1cccs1` (stereo not shown) [Compound 8l, 2-(((phenyl(o-tolyl)methyl)sulfinyl)methyl)thiophene], the IC50 in data set [1] (setting [5]) was 9.5 ± 0.9 µM; in data set [2] (setting [6]) it was over 50 µM; in data set [3] (setting [7]), over 50 µM.

In the case of `Cc1cccc([C@@H](c2ccccc2)[S@+]([O-])Cc2cccs2)c1` [Compound 8m, (R,R)-2-(((phenyl(m-tolyl)methyl)sulfinyl)methyl)thiophene], the concentration for half-maximal inhibition (IC50) in data set [1] (setting [8]) was 1.56 ± 0.25 µM; in data set [2] (setting [9]), over 50 µM; in data set [3] (setting [10]) it was over 50 µM.

`Cc1ccc([C@@H](c2ccccc2)[S@+]([O-])Cc2cccs2)cc1` [Compound 8n, (R,R)-2-(((phenyl(p-tolyl)methyl)sulfinyl)methyl)thiophene]: the IC50 in data set [1] (setting [5]) is 4 µM and 4.01 µM; in data set [2] (setting [6]), 25 ± 4 µM; in data set [3] (setting [10]) it was over 50 µM.

`[O-][S+](Cc1cccs1)C(c1ccccc1)c1ccccc1C(F)(F)F` (stereo not shown) [Compound 8o, 2-(((phenyl(2-(trifluoromethyl)phenyl)methyl)sulfinyl)methyl)thiophene]: the IC50 in data set [1] (setting [8]) was 8.9 ± 0.7 µM; in data set [2] (setting [11]), over 50 µM; in data set [3] (setting [10]), over 50 µM.

Regarding `[O-][S+](Cc1cccs1)C(c1ccccc1)c1cccc(C(F)(F)F)c1` (stereo not shown) [Compound 8p, 2-(((phenyl(3-(trifluoromethyl)phenyl)methyl)sulfinyl)methyl)thiophene], the IC50 is 6.2 ± 0.6 µM in data set [1] (setting [8]), 31 ± 5 µM in data set [2] (setting [9]) and over 50 µM in data set [3] (setting [12]).

In the case of `[O-][S+](Cc1cccs1)C(c1ccccc1)c1ccc(C(F)(F)F)cc1` (stereo not shown) [Compound 8q, 2-(((phenyl(4-(trifluoromethyl)phenyl)methyl)sulfinyl)methyl)thiophene], the IC50 in data set [1] (setting [8]) is 21 ± 2 µM; in data set [2] (setting [9]), 4.7 ± 0.5 µM; in data set [3] (setting [12]) it was over 50 µM.

For the compound `COc1ccccc1C(c1ccccc1)[S+]([O-])Cc1cccs1` [Compound 8r, (S,S)-2-((((2-methoxyphenyl)(phenyl)methyl)sulfinyl)methyl)thiophene], the IC50 in data set [1] (setting [8]), in data set [2] (setting [9]) and in data set [3] (setting [10]) was over 50 µM each time.

On to `COc1cccc(C(c2ccccc2)[S+]([O-])Cc2cccs2)c1` (stereo not shown) [Compound 8s, 2-((((3-methoxyphenyl)(phenyl)methyl)sulfinyl)methyl)thiophene], for which the IC50 in data set [1] (setting [8]), in data set [2] (setting [9]) and in data set [3] (setting [12]) was over 50 µM in each case.

As to `COc1ccc([C@H](c2ccccc2)[S@+]([O-])Cc2cccs2)cc1` [Compound 8t, (R,S)-2-((((4-methoxyphenyl)(phenyl)methyl)sulfinyl)methyl)thiophene], the IC50 in data set [1] (setting [8]), in data set [2] (setting [9]) and in data set [3] (setting [10]) was over 50 µM each time.

On to `[O-][S+](Cc1cccs1)C(c1ccc(F)cc1)c1ccc(Cl)cc1` (stereo not shown) [Compound 8u, 2-((((4-chlorophenyl)(4-fluorophenyl)methyl)sulfinyl)methyl)thiophene], for which the IC50 in data set [1] (setting [8]) was 5.4 ± 1 µM; in data set [2] (setting [11]), over 50 µM; in data set [3] (setting [12]), over 50 µM.

Consider `COC(=O)Nc1nc2ccc(C(=O)c3cccs3)cc2[nH]1` [Nocodazole, reference compound], for which the 50% inhibitory concentration (IC50) with rat cortical neurons (Cortical neurone, rat cortical neurons, read-out: Mean Neurite Avg. Length IC50) turned out to be 0.097 µM; with rat cortical neurons (Cortical neurone, rat cortical neurons, read-out: Neurite Total Length per Neuron IC50), 0.0997 µM; with rat cortical neurons (Cortical neurone, rat cortical neurons, read-out: Valid Neuron Count IC50), 2.22 µM. In the data set on rat cortical neurons (rat cortical neurons), the “effect on neurite outgrowth in relation to effect on cell viability” value is “positive for substantially affecting neurite outgrowth while nominally affecting cell viability”.

Take `NC(=O)C[S@@+]([O-])C(c1ccccc1)c1ccccc1` [R-Modafinil]: the IC50 in data set [4] was 169 ± 90 µM.
